Here are results for 22 compounds from patent US10316017B2, “COT modulators and methods of use thereof” (Gilead Sciences, Inc., priority 2015, dated 2019).

Read-outs that look alike come from different tables or passages of the source.

In assay [1] the target is T1, human Cot catalytic domain (30-397 amino acids) (Homo sapiens, UniProt P41279).
T1 construct: Purified recombinant human Cot catalytic domain (30-397 amino acids) was purchased from Cama Biosciences; purchased Cama Biosciences (so in the source)
Nature of the assay: High Throughput Cot Biochemical Assay (KinEASE TR-FRET). As to conditions: Cot KinEASE TR-FRET (HTRF) biochemical assay, 400 μM ATP; read-out: IC50 HTRF. The gist of the method:
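Recombinant human Cot catalytic domain (aa 30-397), 5 nM, with 1 μM STK3 peptide and 400 μM ATP in MOPS pH 7.0 buffer with MgOAc, DTT, BSA, NP-40, glycerol, 0.1% DMSO. Phosphorylated XL665-peptide detected by Eu-[…] antibody TR-FRET.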
For orientation: Time-resolved FRET reads energy transfer from a long-lived donor to a nearby acceptor.

Assay [2] has as its system TNFα production in LPS-stimulated human monocytes. Nature of the assay: Cot Monocyte TNFα Cell Based Assay. As to conditions: Homo sapiens, Monocyte, read-out: EC50 TNF. The gist of the method: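 Human monocytes (5,000 cells/well) pretreated with compound for 1 hour at 37° C (0.5% DMSO), then stimulated with 50 pg/ml LPS for 4 hours. Total TNFα measured by TR-FRET after overnight antibody incubation at room temp, expressed as percent of control between unstimulated and stimulated cells.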

Setting [3] is: TNFα in LPS-stimulated human monocytes.

T1 sequence (P41279 30-397): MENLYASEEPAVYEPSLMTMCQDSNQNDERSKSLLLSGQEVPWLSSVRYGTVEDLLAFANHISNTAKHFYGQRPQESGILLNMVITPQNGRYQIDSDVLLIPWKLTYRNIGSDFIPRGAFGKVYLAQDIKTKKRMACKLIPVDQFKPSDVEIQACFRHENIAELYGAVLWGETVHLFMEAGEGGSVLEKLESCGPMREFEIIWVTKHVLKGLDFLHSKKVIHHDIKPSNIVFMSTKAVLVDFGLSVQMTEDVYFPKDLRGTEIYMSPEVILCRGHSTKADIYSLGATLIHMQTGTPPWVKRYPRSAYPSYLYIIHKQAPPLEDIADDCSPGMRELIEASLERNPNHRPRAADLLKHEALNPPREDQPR

Turning to `[2H][C@](Nc1cc(Cl)c2ncc(C#N)c(N[C@H]3CCCC[C@@H]3CO)c2c1)(c1ccc(F)cc1)c1cn(C2CC2)nn1` [Example 234, 8-chloro-6-(((S)-(1-cyclopropyl-1H-1,2,3-triazol-4-yl)(4-fluorophenyl)methyl-d)amino)-4-(((1S,2S)-2-(hydroxymethyl)cyclohexyl)amino) quinoline-3-carbonitrile], the IC50 – broadly, the concentration at which inhibition is half-maximal – in assay [1] was 523 nM. Besides, the concentration for a half-maximal effect (EC50) (commonly the midpoint of the concentration-response curve) in assay [2] (setting [3]) was 5630 nM.
In the case of `[2H][C@](Nc1cc(Cl)c2ncc(C#N)c(N[C@@H]3CCCC[C@H]3CO)c2c1)(c1ccc(F)cc1)c1cn(C2CC2)nn1` [Example 235, 8-chloro-6-(((S)-(1-cyclopropyl-1H-1,2,3-triazol-4-yl)(4-fluorophenyl)methyl-d)amino)-4-(((1R,2R)-2-(hydroxymethyl)cyclohexyl)amino) quinoline-3-carbonitrile], in assay [1], the IC50 was found to be 605 nM. Besides, the EC50 in assay [2] (setting [3]) is at least 10000 nM.
Consider `[2H][C@](Nc1cc(Cl)c2ncc(C#N)c(N[C@H]3CCCC[C@@H]3O)c2c1)(c1ccc(F)cc1)c1cn(C2CC2)nn1` [Example 236, 8-chloro-6-(((S)-(1-cyclopropyl-1H-1,2,3-triazol-4-yl)(4-fluorophenyl)methyl-d)amino)-4-(((1S,2S)-2-hydroxycyclohexyl)amino) quinoline-3-carbonitrile], for which, in assay [1], the IC50 stood at 294 nM. The half-maximal effective concentration (EC50) in assay [2] (setting [3]) was determined as 6630 nM.
With `[2H][C@](Nc1cc(Cl)c2ncc(C#N)c(NCC[Si](C)(C)C)c2c1)(c1ccc(F)cc1)c1cn(C2CC2)nn1` [Example 237, (S)-8-chloro-6-(((1-cyclopropyl-1H-1,2,3-triazol-4-yl)(4-fluorophenyl)methyl-d)amino)-4-((2-(trimethylsilyl)ethyl)amino) quinoline-3-carbonitrile], the IC50 in assay [1] worked out at 231 nM. Also, in assay [2], the EC50 was determined as 5120 nM.
With `[2H][C@@](Nc1cc(Cl)c2ncc(C#N)c(NCC(C)(C)C)c2c1)(c1cn(C2CC2)nn1)c1ccccc1C(F)F` [Example 238, (S)-8-chloro-6-(((1-cyclopropyl-1H-1,2,3-triazol-4-yl)(2-(difluoromethyl)phenyl)methyl-d)amino)-4-(neopentylamino)quinoline-3-carbonitrile], the IC50 in assay [1] turned out to be 12 nM. In assay [2] (setting [3]), the EC50 worked out at 162 nM.
Consider `[2H]C([2H])(Nc1c(C#N)cnc2c(Cl)cc(N[C@@]([2H])(c3cccc(C#N)c3)c3cn(C4CC4)nn3)cc12)C(C)(C)C` [Example 239, (S)-8-chloro-6-(((3-cyanophenyl)(1-cyclopropyl-1H-1,2,3-triazol-4-yl)methyl-d)amino)-4-((2,2-dimethylpropyl-1,1-d2)amino)quinoline-3-carbonitrile], for which the IC50 in assay [1] came out at 2 nM. Also, in assay [2] (setting [3]), the EC50 worked out at 55 nM.
With `[2H][C@](Nc1cc(C#N)c2ncc(C#N)c(NCC(C)(C)C)c2c1)(c1cccc(C#N)c1)c1cn(C2CC2)nn1` [Example 240, (S)-6-(((3-cyanophenyl)(1-cyclopropyl-1H-1,2,3-triazol-4-yl)methyl-d)amino)-4-(neopentylamino)quinoline-3,8-dicarbonitrile], the IC50 in assay [1] amounted to 1 nM. In addition, in assay [2] (setting [3]), the concentration for a half-maximal effect (EC50) is 71 nM.
On to `[2H][C@](Nc1cc(Cl)c2ncc(C#N)c(NC3(C)CC3)c2c1)(c1ccc(F)cc1)c1cn(C2CC2)nn1` [Example 241, (S)-8-chloro-6-(((1-cyclopropyl-1H-1,2,3-triazol-4-yl)(4-fluorophenyl)methyl-d)amino)-4-((1-methylcyclopropyl)amino) quinoline-3-carbonitrile], for which, in assay [1], the IC50 is 951 nM. Further, the EC50 in assay [2] (setting [3]) worked out at 5080 nM.
For the compound `[2H][C@](Nc1cc(C#N)c2ncc(C#N)c(N[C@H](CC)c3ccccc3)c2c1)(c1cccc(C#N)c1)c1cn(C2CC2)nn1` [Example 243, 6-(((S)-(3-cyanophenyl)(1-cyclopropyl-1H-1,2,3-triazol-4-yl)methyl-d)amino)-4-(((R)-1-phenylpropyl)amino)quinoline-3,8-dicarbonitrile], the IC50 in assay [1] amounted to 2 nM. For the same compound, in assay [2] (setting [3]), the EC50 was 41 nM.
In the case of `[2H][C@](Nc1cc(Cl)c2ncc(C#N)c(N[C@@H](C)C(C)(C)C)c2c1)(c1ccc(F)cc1)c1cn(C2CC2)nn1` [Example 244, 8-chloro-6-(((S)-(1-cyclopropyl-1H-1,2,3-triazol-4-yl)(4-fluorophenyl)methyl-d)amino)-4-(((S)-3,3-dimethylbutan-2-yl)amino)quinoline-3-carbonitrile], in assay [1], the half-inhibitory concentration (IC50) was 576 nM. In assay [2] (setting [3]), the EC50 came to 5690 nM.
On the same counts, the results for `[2H][C@](Nc1cc(Cl)c2ncc(C#N)c(NC34CC5CC(CC(C5)C3)C4)c2c1)(c1ccc(F)cc1)c1cn(C2CC2)nn1` [Example 245, 4-(((3R,5R,7R)-adamantan-1-yl)amino)-8-chloro-6-(((S)-(1-cyclopropyl-1H-1,2,3-triazol-4-yl)(4-fluorophenyl)methyl-d)amino)quinoline-3-carbonitrile] are 46 nM and 557 nM.
Consider `[2H][C@](Nc1cc(Cl)c2ncc(C#N)c(NC3C4CC5CC(C4)CC3C5)c2c1)(c1ccc(F)cc1)c1cn(C2CC2)nn1` (stereo partly drawn) [Example 246, 4-(((1S,3S,5S,7S)-adamantan-2-yl)amino)-8-chloro-6-(((S)-(1-cyclopropyl-1H-1,2,3-triazol-4-yl)(4-fluorophenyl)methyl-d)amino)quinoline-3-carbonitrile], for which the IC50 in assay [1] was 19 nM. For the same compound, in assay [2] (setting [3]), the EC50 was 490 nM.
As to `[2H][C@](Nc1cc(Cl)c2ncc(C#N)c(N[C@H](CC#N)C(C)(C)C)c2c1)(c1ccc(F)cc1)c1cn(C2CC2)nn1` [Example 247, 8-chloro-4-(((R)-1-cyano-3,3-dimethylbutan-2-yl)amino)-6-(((S)-(1-cyclopropyl-1H-1,2,3-triazol-4-yl)(4-fluorophenyl)methyl-d)amino)quinoline-3-carbonitrile], the IC50 in assay [1] was determined as 28 nM. Further, the EC50 in assay [2] (setting [3]) was 635 nM.
With `[2H][C@](Nc1cc(Cl)c2ncc(C#N)c(N[C@@H](CCC#N)c3ccccc3)c2c1)(c1ccc(F)cc1)c1cn(C2CC2)nn1` [Example 248, 8-chloro-4-(((S)-3-cyano-1-phenylpropyl)amino)-6-(((S)-(1-cyclopropyl-1H-1,2,3-triazol-4-yl)(4-fluorophenyl)methyl-d)amino)quinoline-3-carbonitrile], the IC50 in assay [1] came to 3200 nM. Further, the EC50 in assay [2] (setting [3]) is over 10000 nM.
As to `[2H][C@](Nc1cc(Cl)c2ncc(C#N)c(N[C@H](CCC#N)c3ccccc3)c2c1)(c1ccc(F)cc1)c1cn(C2CC2)nn1` [Example 249, 8-chloro-4-(((R)-3-cyano-1-phenylpropyl)amino)-6-(((S)-(1-cyclopropyl-1H-1,2,3-triazol-4-yl)(4-fluorophenyl)methyl-d)amino)quinoline-3-carbonitrile], the IC50 in assay [1] stood at 1 nM. Besides, the EC50 in assay [2] (setting [3]) stood at 21 nM.
Taken in the same sequence, the figures for `[2H][C@](Nc1cc(Cl)c2ncc(C#N)c(N[C@H](CC)c3ccccc3)c2c1)(c1cccc(C#N)c1)c1cn(C(C)(C)C)nn1` [Example 252, 6-(((S)-(1-(tert-butyl)-1H-1,2,3-triazol-4-yl)(3-cyanophenyl)methyl-d)amino)-8-chloro-4-(((R)-1-phenylpropyl)amino)quinoline-3-carbonitrile] were 5 nM and 80 nM.
As to `[2H][C@](Nc1cc(Cl)c2ncc(C#N)c(N[C@H](CC)c3ccccc3)c2c1)(c1ccc(F)cc1)c1cn(C(C)(C)C)nn1` [Example 253], the IC50 in assay [1] amounted to 16 nM. Besides, in assay [2] (setting [3]), the half-maximal effective concentration (EC50) was found to be 214 nM.
As for `[2H][C@](Nc1cc(F)c2ncc(C#N)c(NC(CCC#N)c3ccccc3)c2c1)(c1cccc(C#N)c1)c1cn(C2CC2)nn1` (stereo partly drawn) [Example 254, 4-((3-cyano-1-phenylpropyl)amino)-6-(((S)-(3-cyanophenyl) (1-cyclopropyl-1H-1,2,3-triazo1-4-yl)methyl-d)amino)-8-fluoroquinoline-3-carbonitrile], in assay [1], the IC50 is 3 nM. For the same compound, the EC50 in assay [2] (setting [3]) came to 42 nM.
For the compound `[2H][C@](Nc1cc(F)c2ncc(C#N)c(NC(CCC#N)c3ccccc3)c2c1)(c1ccc(F)cc1)c1cn(C2CC2)nn1` (stereo partly drawn) [Example 255, 4-((3-cyano-1-phenylpropyl)amino)-6-(((S)-(1-cyclopropyl-1H-1,2,3-triazol-4-yl)(4-fluorophenyl)methyl-d)amino)-8-fluoroquinoline-3-carbonitrile], the IC50 in assay [1] came to 5 nM. Also, in assay [2] (setting [3]), the EC50 came to 62 nM.
Consider `[2H][C@](Nc1cc(F)c2ncc(C#N)c(NCC(C)(C)C)c2c1)(c1cccc(C#N)c1)c1cn(C2CC2)nn1` [Example 256, (S)-6-(((3-cyanophenyl)(1-cyclopropyl-1H-1,2,3-triazol-4-yl)methyl-d)amino)-8-fluoro-4-(neopentylamino)quinoline-3-carbonitrile], for which, in assay [1], the IC50 was determined as 3 nM. For the same compound, the EC50 in assay [2] (setting [3]) turned out to be 121 nM.
Take `[2H][C@](Nc1cc(F)c2ncc(C#N)c(N[C@H](CC)c3ccccc3)c2c1)(c1cccc(C#N)c1)c1cn(C2CC2)nn1` [Example 257, 6-(((S)-(3-cyanophenyl)(1-cyclopropyl-1H-1,2,3-triazol-4-yl)methyl-d)amino)-8-fluoro-4-(((R)-1-phenylpropyl)amino)quinoline-3-carbonitrile]: in assay [1], the half-inhibitory concentration (IC50) was 3 nM. Besides, the EC50 in assay [2] (setting [3]) was determined as 93 nM.
For the compound `CC[C@@H](Nc1c(C#N)cnc2c(Cl)cc(N[C@H](c3cn(C4CC4)nn3)c3cc(C#N)ccc3Cl)cc12)c1ccccc1` [Example 258, 8-chloro-6-(((S)-(2-chloro-5-cyanophenyl)(1-cyclopropyl-1H-1,2,3-triazol-4-yl)methyl)amino)-4-(((R)-1-phenylpropyl)amino)quinoline-3-carbonitrile], in assay [1], the IC50 came out at 44 nM. For the same compound, the EC50 in assay [2] (setting [3]) is 651 nM.
